The target of the assay is T1, Tre6Pase activity of intact trehalose synthase (Saccharomyces cerevisiae, UniProt P31688).
T1 construct: Intact trehalose synthase was purified from commercial baker's yeast; made in house; host or cells: commercial baker's yeast (native enzyme purified, not recombinant)
T1 sequence (P31688 1-896): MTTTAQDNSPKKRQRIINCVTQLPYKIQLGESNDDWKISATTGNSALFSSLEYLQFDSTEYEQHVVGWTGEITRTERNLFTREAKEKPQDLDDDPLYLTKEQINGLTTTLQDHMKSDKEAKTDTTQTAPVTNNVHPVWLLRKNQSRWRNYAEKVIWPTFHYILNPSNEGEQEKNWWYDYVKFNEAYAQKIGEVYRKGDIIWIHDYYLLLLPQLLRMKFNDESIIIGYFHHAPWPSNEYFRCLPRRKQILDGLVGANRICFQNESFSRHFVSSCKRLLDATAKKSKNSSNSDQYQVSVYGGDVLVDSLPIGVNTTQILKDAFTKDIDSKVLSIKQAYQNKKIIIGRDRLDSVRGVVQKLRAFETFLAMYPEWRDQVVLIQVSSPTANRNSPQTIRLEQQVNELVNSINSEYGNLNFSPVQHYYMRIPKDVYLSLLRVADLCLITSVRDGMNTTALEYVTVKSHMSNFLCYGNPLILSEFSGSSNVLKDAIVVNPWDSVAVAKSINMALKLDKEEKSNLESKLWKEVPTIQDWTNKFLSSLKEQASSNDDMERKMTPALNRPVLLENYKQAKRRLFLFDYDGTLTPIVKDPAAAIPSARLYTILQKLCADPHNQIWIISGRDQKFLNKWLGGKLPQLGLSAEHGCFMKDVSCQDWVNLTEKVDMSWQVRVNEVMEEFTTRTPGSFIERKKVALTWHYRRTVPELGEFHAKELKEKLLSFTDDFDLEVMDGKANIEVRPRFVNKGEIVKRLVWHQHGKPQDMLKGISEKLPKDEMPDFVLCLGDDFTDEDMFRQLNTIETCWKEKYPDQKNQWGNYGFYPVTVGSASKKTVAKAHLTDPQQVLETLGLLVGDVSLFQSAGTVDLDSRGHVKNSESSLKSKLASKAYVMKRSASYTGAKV
T1 sequence (Q00764 1-495 partner): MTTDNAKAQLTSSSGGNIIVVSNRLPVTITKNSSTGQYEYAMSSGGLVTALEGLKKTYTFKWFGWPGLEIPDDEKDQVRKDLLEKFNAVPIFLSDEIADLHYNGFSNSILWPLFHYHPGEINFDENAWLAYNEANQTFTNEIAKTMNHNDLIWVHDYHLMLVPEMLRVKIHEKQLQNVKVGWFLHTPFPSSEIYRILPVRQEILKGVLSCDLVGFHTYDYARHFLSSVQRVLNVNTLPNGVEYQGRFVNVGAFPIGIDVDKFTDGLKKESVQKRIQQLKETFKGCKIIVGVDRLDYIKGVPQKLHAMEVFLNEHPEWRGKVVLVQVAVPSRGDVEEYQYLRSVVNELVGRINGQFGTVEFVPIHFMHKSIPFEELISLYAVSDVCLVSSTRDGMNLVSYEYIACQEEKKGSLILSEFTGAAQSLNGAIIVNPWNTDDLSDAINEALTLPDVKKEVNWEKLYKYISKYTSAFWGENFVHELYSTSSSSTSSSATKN
T1 sequence (P38427 1-1098 partner): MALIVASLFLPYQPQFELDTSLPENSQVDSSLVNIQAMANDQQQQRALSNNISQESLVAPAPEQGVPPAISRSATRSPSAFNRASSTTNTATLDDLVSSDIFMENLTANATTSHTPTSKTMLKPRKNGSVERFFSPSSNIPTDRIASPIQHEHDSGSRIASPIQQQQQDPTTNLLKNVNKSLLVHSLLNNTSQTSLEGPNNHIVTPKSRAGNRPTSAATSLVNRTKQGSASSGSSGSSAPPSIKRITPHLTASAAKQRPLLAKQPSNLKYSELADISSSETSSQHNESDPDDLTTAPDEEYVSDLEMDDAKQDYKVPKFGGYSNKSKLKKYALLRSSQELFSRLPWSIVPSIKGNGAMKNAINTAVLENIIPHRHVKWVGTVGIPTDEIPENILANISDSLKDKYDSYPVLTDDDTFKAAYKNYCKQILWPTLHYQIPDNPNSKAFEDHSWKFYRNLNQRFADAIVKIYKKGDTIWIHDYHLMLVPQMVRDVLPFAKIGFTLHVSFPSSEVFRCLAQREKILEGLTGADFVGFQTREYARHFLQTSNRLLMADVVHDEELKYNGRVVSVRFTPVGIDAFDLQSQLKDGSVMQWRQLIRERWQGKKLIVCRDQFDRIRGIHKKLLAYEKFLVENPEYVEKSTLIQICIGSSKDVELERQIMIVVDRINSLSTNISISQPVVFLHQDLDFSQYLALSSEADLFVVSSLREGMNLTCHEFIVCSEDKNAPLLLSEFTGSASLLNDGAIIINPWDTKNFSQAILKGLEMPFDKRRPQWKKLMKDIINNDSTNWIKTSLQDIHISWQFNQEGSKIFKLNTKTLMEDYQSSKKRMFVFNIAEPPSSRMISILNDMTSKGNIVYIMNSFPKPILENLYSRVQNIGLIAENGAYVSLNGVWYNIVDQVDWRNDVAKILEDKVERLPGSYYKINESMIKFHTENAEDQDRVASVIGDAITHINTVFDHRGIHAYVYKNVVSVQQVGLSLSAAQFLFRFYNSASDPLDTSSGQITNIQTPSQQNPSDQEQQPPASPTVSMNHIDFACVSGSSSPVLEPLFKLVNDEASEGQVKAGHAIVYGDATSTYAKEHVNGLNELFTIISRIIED
Briefly: Tre6Pase assay of intact trehalose synthase. It is filed as biochemical, baker's yeast. As for the experimental part:
With microbial materials, Tre6Pase and Tre6P synthase standard assays and other kinetic measurements were made as described by Londesborough & Vuorio [(1991) loc. cit.] except that the standard Tre6P synthase assay mixture contained 5 mM F6P unless stated otherwise.
In one experiment intact trehalose synthase (0.28 Tre6P synthase units, ≈9.4 μg) was incubated with or without 0.5 μg of trypsin at 30° C. in 250 μl of 13 mM HEPES pH 7.0 containing 1 mM MgCl2, 0.5 mM EDTA, 0.5 mM dithiothreitol, 0.2 M NaCl and 0.5 mM benzamidine. Its Tre6P synthase activity was determined at intervals using standard assay mixtures (containing 5 mM F6P) containing no or 4 mM K phosphate pH 6.8, and samples were prepared for SDS-PAGE analysis immediately before and 48 min after addition of the trypsin.
Intact trehalose synthase was prepared as in Example 1. Kinetic assays were done at 30° C. as described in General Methods and Materials.

Read-outs that look alike come from different tables or passages of the source.

With `O=P(O)(O)O` [phosphate, K phosphate], the EC50 (initial rates, intact enzyme, read-out: half maximal activation of Tre6Pase by phosphate) is 600 µM.

Regarding `O=C(CO)[C@@H](O)[C@H](O)[C@H](O)COP(=O)(O)O` [Transformant F6P, Fructose 6-phosphate], for the setting “in the absence of phosphate, intact enzyme”, the “effect on Tre6Pase activity” value is recorded as “did not affect”. Also, the inhibition at 5000 µM was in the range of 10 to 15% (read-out: inhibition of Tre6Pase activity, 5 mM F6P, saturating phosphate concentrations, intact enzyme) and 20 to 30% (read-out: inhibition of Tre6Pase activity, 5 mM F6P, sub-optimal phosphate concentrations, intact enzyme).

These data come from US6323001A, “Increasing the trehalose content of organisms by transforming them with combinations of the structural genes for trehalose synthase” (BTG International Ltd., priority 1994, dated 2001).
